Test results as given in ChEMBL document CHEMBL3885861, “Open TG-GATES”.

Species on record: Rattus norvegicus
Experiment: Open TG-GATES - Regimen: Daily Repeat
Format: toxicity, organism-based, Sprague-Dawley
Set-up: regimen Daily Repeat, gender Male, age 6 weeks
Settings: in vivo, po, route gavage; for gamma-GTP / A/G / ALP / ALT / AST / BUN / CRE / Ca / Cl / DBIL / GLC / IP / K / LDH / Na / PL / RALB / TBIL / TC / TG / TP: tissue Plasma; for APTT / Bas / Eos / Fbg / Hb / Ht / Lym / MCH / MCHC / MCV / Mono / Neu / PT / Plat / RBC / Ret / WBC: tissue Blood; for KIDNEY_L / KIDNEY_R / KIDNEY_TOTAL: tissue Kidney; for LIVER: tissue Liver
[1] = 3 mg/kg, […], dose level Low, time 28 day
[2] = 10 mg/kg, 72 h, dose level Middle, time 3 day
[3] = 10 mg/kg, […], dose level Middle, time 7 day
[4] = 10 mg/kg, […], dose level Middle, time 14 day
[5] = 10 mg/kg, […], dose level Middle, time 28 day

CCN(CC)N=O [N-NITROSODIETHYLAMINE]
gamma-GTP (3 mg/kg, […], dose level Low, time 14 day): 1.2 IU/L | A/G [1]: 1.3 | ALP [1]: 685.6 IU/L | ALT [1]: 37.6 IU/L | AST [1]: 69.4 IU/L | BUN [1]: 15.6 mg/dL | CRE [1]: 0.5 mg/dL | Ca [1]: 10.2 mg/dL | Cl [1]: 103.2 meq/L | DBIL [1]: 0.1 mg/dL | GLC [1]: 203.8 mg/dL | IP [1]: 7 mg/dL | K [1]: 3.7 meq/L | LDH [1]: 198.4 IU/L | Na [1]: 141.6 meq/L | PL [1]: 142.2 mg/dL | RALB [1]: 3.4 g/dL | TBIL [1]: 0.2 mg/dL | TC [1]: 72 mg/dL | TG [1]: 109.8 mg/dL | TP [1]: 6 g/dL | gamma-GTP [1]: 1.6 IU/L | TERMINAL_BW [2]: 232.4 g | APTT [2]: 17.9 s | Bas [2]: 0.4% | Eos [2]: 1% | Fbg [2]: 224.4 mg/dL | Hb [2]: 13.7 g/dL | Ht [2]: 39.6% | Lym [2]: 80.6% | MCH [2]: 21.4 pg | MCHC [2]: 34.5% | MCV [2]: 62 fL | Mono [2]: 1.8% | Neu [2]: 15.6% | PT [2]: 11.9 s | Plat [2]: 144.5 x10_4/uL | RBC [2]: 639 x10_4/ul | Ret [2]: 5.5% | WBC [2]: 81.6 x10_2/uL | KIDNEY_L [2]: 1 g | KIDNEY_R [2]: 1 g | KIDNEY_TOTAL [2]: 2 g | LIVER [2]: 9.9 g | A/G [2]: 1.5 | ALP [2]: 927.8 IU/L | ALT [2]: 33.6 IU/L | AST [2]: 69 IU/L | BUN [2]: 14.4 mg/dL | CRE [2]: 0.4 mg/dL | Ca [2]: 10.6 mg/dL | Cl [2]: 103.4 meq/L | DBIL [2]: 0.09 mg/dL | GLC [2]: 186.6 mg/dL | IP [2]: 7.5 mg/dL | K [2]: 4.1 meq/L | LDH [2]: 186.8 IU/L | Na [2]: 140.8 meq/L | PL [2]: 126.4 mg/dL | RALB [2]: 3.3 g/dL | TBIL [2]: 0.1 mg/dL | TC [2]: 69 mg/dL | TG [2]: 75 mg/dL | TP [2]: 5.5 g/dL | gamma-GTP [2]: 1.4 IU/L | TERMINAL_BW [3]: 255.8 g | TERMINAL_BW [4]: 288.9 g | TERMINAL_BW [5]: 349 g | APTT [3]: 19.3 s | Bas [3]: 0.8% | Eos [3]: 1% | Fbg [3]: 210.6 mg/dL | Hb [3]: 14.7 g/dL | Ht [3]: 41.7% | Lym [3]: 80% | MCH [3]: 21.2 pg | MCHC [3]: 35.2% | MCV [3]: 60.3 fL | Mono [3]: 2.4% | Neu [3]: 15.8% | PT [3]: 12.3 s | Plat [3]: 139.2 x10_4/uL | RBC [3]: 693.4 x10_4/ul | Ret [3]: 3.4% | WBC [3]: 94.2 x10_2/uL | APTT [4]: 18.7 s | Bas [4]: 1% | Eos [4]: 1.2% | Fbg [4]: 212 mg/dL | Hb [4]: 16 g/dL | Ht [4]: 44.8% | Lym [4]: 75.2% | MCH [4]: 21.4 pg | MCHC [4]: 35.6% | MCV [4]: 60.2 fL | Mono [4]: 2.6% | Neu [4]: 20% | PT [4]: 12.8 s | Plat [4]: 135.1 x10_4/uL | RBC [4]: 745.2 x10_4/ul | Ret [4]: 3% | WBC [4]: 125 x10_2/uL | APTT [5]: 17.1 s | Bas [5]: 0.6% | Eos [5]: 0.8% | Fbg [5]: 197.8 mg/dL | Hb [5]: 16.8 g/dL | Ht [5]: 45.5% | Lym [5]: 77.4% | MCH [5]: 20.6 pg | MCHC [5]: 36.9% | MCV [5]: 55.9 fL | Mono [5]: 2.4% | Neu [5]: 18% | PT [5]: 12.7 s | Plat [5]: 115.5 x10_4/uL | RBC [5]: 815 x10_4/ul | Ret [5]: 1.9% | WBC [5]: 126.6 x10_2/uL | KIDNEY_L [3]: 1 g | KIDNEY_R [3]: 1 g | KIDNEY_TOTAL [3]: 2.1 g | KIDNEY_L [4]: 1.1 g | KIDNEY_R [4]: 1.1 g | KIDNEY_TOTAL [4]: 2.3 g | KIDNEY_L [5]: 1.2 g | KIDNEY_R [5]: 1.2 g | KIDNEY_TOTAL [5]: 2.3 g | LIVER [3]: 10.2 g | LIVER [4]: 9.6 g | LIVER [5]: 9.3 g | A/G [3]: 1.7 | ALP [3]: 860.8 IU/L | ALT [3]: 36.2 IU/L | AST [3]: 78 IU/L | BUN [3]: 13.6 mg/dL | CRE [3]: 0.4 mg/dL | Ca [3]: 10.4 mg/dL | Cl [3]: 104.2 meq/L | DBIL [3]: 0.1 mg/dL | GLC [3]: 190.2 mg/dL | IP [3]: 7.4 mg/dL | K [3]: 4 meq/L | LDH [3]: 236.4 IU/L | Na [3]: 141.2 meq/L | PL [3]: 131 mg/dL | RALB [3]: 3.3 g/dL | TBIL [3]: 0.2 mg/dL | TC [3]: 71.4 mg/dL | TG [3]: 59.2 mg/dL | TP [3]: 5.3 g/dL | gamma-GTP [3]: 1.2 IU/L | A/G [4]: 1.6 | ALP [4]: 1173 IU/L | ALT [4]: 52.8 IU/L | AST [4]: 91.4 IU/L | BUN [4]: 15 mg/dL | CRE [4]: 0.5 mg/dL | Ca [4]: 10.5 mg/dL | Cl [4]: 101.6 meq/L | DBIL [4]: 0.1 mg/dL
